Several values for one entry are separate records, joined by “and”; a condition that tells them apart may be missing. Identical values can stand only once. Where a SMILES comes first, the peptide text is derived from it.

For orientation: Ki means a measure of affinity in units of concentration, obtained from inhibition or displacement. A high value points to lower affinity.

For the first assay, the target named is Mu-type opioid receptor (Bos taurus, UniProt P79350).
Sequence of Mu-type opioid receptor (Bos taurus, UniProt P79350) (P79350 whole entry): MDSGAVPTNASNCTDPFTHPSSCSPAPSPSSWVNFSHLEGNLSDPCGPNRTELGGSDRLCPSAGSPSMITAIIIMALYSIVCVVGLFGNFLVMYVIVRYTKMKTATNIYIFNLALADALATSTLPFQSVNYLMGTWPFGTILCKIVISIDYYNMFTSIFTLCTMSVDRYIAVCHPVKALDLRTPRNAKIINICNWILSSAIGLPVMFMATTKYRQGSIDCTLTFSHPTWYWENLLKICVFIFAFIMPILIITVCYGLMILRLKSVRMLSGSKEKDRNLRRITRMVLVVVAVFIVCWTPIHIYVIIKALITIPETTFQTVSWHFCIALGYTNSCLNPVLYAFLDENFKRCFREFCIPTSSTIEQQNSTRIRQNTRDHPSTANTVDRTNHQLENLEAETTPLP
On to `NC(=O)[C@H](Cc1ccccc1)NC(=O)[C@H](Cc1ccccc1)NC(=O)[C@@H]1CCCN1C(=O)[C@@H](N)Cc1ccc(O)cc1`, for which the inhibition constant Ki is 0.43 nM and 4 nM. Turning to `NC(=O)[C@H](Cc1ccccc1)NC(=O)[C@H](Cc1c[nH]c2ccccc12)NC(=O)[C@@H]1CCCN1C(=O)[C@@H](N)Cc1ccc(O)cc1` [Endomorphin 1], the Ki is 0.67 nM and 3.2 nM.

In a further assay the target is Mu-type opioid receptor (Mus musculus, UniProt P42866).
Sequence of Mu-type opioid receptor (Mus musculus, UniProt P42866) (P42866 whole entry): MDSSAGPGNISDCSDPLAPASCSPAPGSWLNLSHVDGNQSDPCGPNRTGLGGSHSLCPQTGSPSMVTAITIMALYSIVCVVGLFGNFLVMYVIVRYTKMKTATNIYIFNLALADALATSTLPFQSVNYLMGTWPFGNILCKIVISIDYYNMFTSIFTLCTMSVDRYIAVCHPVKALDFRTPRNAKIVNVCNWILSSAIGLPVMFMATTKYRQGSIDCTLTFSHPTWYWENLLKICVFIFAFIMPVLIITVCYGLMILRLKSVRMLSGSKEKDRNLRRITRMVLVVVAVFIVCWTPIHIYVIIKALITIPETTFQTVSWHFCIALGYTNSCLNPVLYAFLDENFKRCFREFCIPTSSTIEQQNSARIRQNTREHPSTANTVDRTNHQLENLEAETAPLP
`C=CCN1CCC23c4c5ccc(O)c4O[C@@H]2C(=NNC(=O)c2ccccc2)CCC3(O)C1C5` (some centres not stated): the Ki was 0.2 nM and 0.12 nM. Consider `COc1ccc2c3c1O[C@H]1C(=O)CC[C@@]4(O)[C@@H](C2)N(CC2CC2)CC[C@]314`, for which the inhibition constant Ki was 20.3 nM and 21.2 nM. Still for that read-out and setting: next, `CC(C)C[C@H](NC(=O)[C@H](Cc1ccccc1)NC(=O)CNC(=O)CNC(=O)[C@@H](N)Cc1ccc(O)cc1)C(=O)N[C@@H](CCCN=C(N)N)C(=O)N[C@@H](CCCN=C(N)N)C(=O)N[C@@H](CCC(N)=O)C(=O)N[C@@H](Cc1ccccc1)C(=O)N[C@@H](CCCCN)C(=O)N[C@H](C(=O)N[C@H](C(=O)N[C@H](C(=O)O)[C@@H](C)O)C(C)C)C(C)C` [(Dynorphin)2-[2-(2-{2-[2-(2-{2-[2-Amino-3-(4-hydroxy-phenyl)-propionylamino]-acetylamino}-acetylamino)-3-phenyl-propionylamino]-4-methyl-pentanoylamino}-5-guanidino-pentanoylamino)-5-guanidino-pentanoylamino]-3-methyl-pentanoic acid]: 39.8 nM and 11.4 nM; `CC[C@H](C)[C@H](NC(=O)[C@H](C)NC(=O)[C@H](CC(N)=O)NC(=O)[C@H](CCCCN)NC(=O)[C@H](Cc1ccccc1)NC(=O)[C@H](CC(C)C)NC(=O)[C@@H](NC(=O)[C@@H](NC(=O)[C@H](CC(C)C)NC(=O)[C@@H]1CCCN1C(=O)[C@@H](NC(=O)[C@H](CCC(N)=O)NC(=O)[C@H](CO)NC(=O)[C@H](CCCCN)NC(=O)[C@H](CCC(=O)O)NC(=O)[C@H](CO)NC(=O)[C@@H](NC(=O)[C@H](CCSC)NC(=O)[C@H](Cc1ccccc1)NC(=O)CNC(=O)CNC(=O)[C@@H](N)Cc1ccc(O)cc1)[C@@H](C)O)[C@@H](C)O)C(C)C)[C@@H](C)O)C(=O)N[C@H](C(=O)N[C@@H](CCCCN)C(=O)N[C@@H](CC(N)=O)C(=O)N[C@@H](C)C(=O)N[C@@H](Cc1cnc[nH]1)C(=O)N[C@@H](CCCCN)C(=O)N[C@@H](CCCCN)C(=O)NCC(=O)N[C@@H](CCC(N)=O)C(=O)O)C(C)C` [Beta-Endorphin] (H-YGGFMTSEKSQTPLVTLFKNAIVKNAHKKGQ-OH): 10.9 nM and 3.22 nM.

Consider `NC(=O)CNC(=O)[C@H](Cc1c[nH]c2ccccc12)NC(=O)[C@@H]1CCCN1C(=O)[C@@H](N)Cc1ccc(O)cc1` [CAS_132632] (H-YPWG-NH2), for which the Ki is 18 nM and 44.7 nM.

Consider `CC(C)C[C@H](NC(=O)[C@H](Cc1ccccc1)NC(=O)CNC(=O)[C@@H](CO)NC(=O)[C@@H](N)Cc1ccc(O)cc1)C(=O)N[C@H](C(=O)O)[C@@H](C)O` [DSLET-OH], for which the inhibition constant (Ki) is 20 nM and 10.8 nM. Same read-out and setting: then `CC[C@H](C)[C@H](NC(=O)[C@H](CCCNC(=N)N)NC(=O)[C@H](CCCNC(=N)N)NC(=O)[C@H](CC(C)C)NC(=O)[C@H](Cc1ccccc1)NC(=O)CNC(=O)CNC(=O)[C@@H](N)Cc1ccc(O)cc1)C(=O)N[C@@H](CCCNC(=N)N)C(=O)N1CCC[C@H]1C(=O)N[C@@H](CCCCN)C(=O)N[C@@H](CC(C)C)C(=O)N[C@@H](CCCCN)C(=O)N[C@@H](Cc1c[nH]c2ccccc12)C(=O)N[C@@H](CC(=O)O)C(=O)N[C@@H](CC(N)=O)C(=O)N[C@@H](CCC(N)=O)C(=O)O` [Dynorphin A (1-17)], with 12.8 nM and 3.32 nM.

With `C=CCN1CC[C@]23CCCCC2[C@H]1Cc1ccc(O)cc13` (some centres not stated) [Levallorphan], the inhibition constant Ki was 0.97 nM and 0.96 nM. On the same count and under the same terms, next, `CN1CCC23c4c5ccc(O)c4O[C@H]2[C@@H](OC2OC(C(=O)O)C(O)C(O)C2O)C=C[C@H]3[C@H]1C5` (some centres not stated) [Morphine 6-glucuronide]: 2.35 nM and 2.47 nM; `CSCC[C@H](NC(=O)[C@H](Cc1ccccc1)NC(=O)CNC(=O)CNC(=O)[C@@H](N)Cc1ccc(O)cc1)C(=O)N[C@@H](CCCNC(=N)N)C(=O)N[C@@H](Cc1ccccc1)C(=O)O` [enkephalin-Met, Arg(6)-Phe(7)] (H-YGGFMRF-OH): 30 nM and 13.4 nM.
